How the values were obtained:
[1] = target: T1, IL-2 high affinity receptor on HUT78 T lymphoma cell membrane (Homo sapiens, UniProt P01589+P14784); experiment: 125I-IL-2 high affinity binding to HuT78 T lymphoma cells; settings: for 125I-IL-2 binding, Percent of Control: N=6
T1 construct: host or cells: HuT78 T lymphoma cells
T1 sequence (P01589 22-272): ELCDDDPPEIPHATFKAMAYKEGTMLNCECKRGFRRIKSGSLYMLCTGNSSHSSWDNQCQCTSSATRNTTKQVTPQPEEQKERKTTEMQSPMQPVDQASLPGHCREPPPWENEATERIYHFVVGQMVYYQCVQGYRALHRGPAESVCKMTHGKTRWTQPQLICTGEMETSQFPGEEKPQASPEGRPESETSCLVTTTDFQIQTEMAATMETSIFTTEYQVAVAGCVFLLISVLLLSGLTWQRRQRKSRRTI
T1 sequence (P14784 27-551): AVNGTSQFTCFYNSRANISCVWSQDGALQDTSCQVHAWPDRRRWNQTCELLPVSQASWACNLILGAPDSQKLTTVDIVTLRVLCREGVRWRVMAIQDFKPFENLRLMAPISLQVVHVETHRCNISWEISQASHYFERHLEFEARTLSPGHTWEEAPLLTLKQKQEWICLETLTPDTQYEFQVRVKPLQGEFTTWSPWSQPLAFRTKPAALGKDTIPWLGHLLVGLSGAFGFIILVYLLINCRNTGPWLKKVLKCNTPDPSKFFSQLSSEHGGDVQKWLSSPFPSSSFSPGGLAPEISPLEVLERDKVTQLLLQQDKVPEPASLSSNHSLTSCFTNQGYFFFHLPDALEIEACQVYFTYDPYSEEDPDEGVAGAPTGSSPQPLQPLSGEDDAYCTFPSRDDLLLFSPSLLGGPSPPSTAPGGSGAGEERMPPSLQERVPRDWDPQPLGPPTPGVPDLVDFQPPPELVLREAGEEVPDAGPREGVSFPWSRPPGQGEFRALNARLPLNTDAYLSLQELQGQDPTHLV

[2] = tested on: RPMI 1788 leukocytes adhesion to L929 fibroblasts; experiment: Adhesion of human leukocytes RPMI-1788 to confluent L929 fibroblasts; assay type: cell-based; settings: for Adhesion, Percent of Control: N=6
[3] = tested on: CF1 male mice, LPS Salmonella abortus equi induced death; experiment: Protection against septic shock (LPS induced endotoxic shock); assay type: in vivo; settings: for Percent Survival at 52 hr: LPS 10 mg/kg, CF1 male mice, N=6
Source text: Few reports in the literature indicate interaction at these receptor sites other than by peptides or antibodies. […] Blocking these receptors is desirable because the entire inflammation cascade of events is triggered by the early release of TNFa and IL-1. […] Radioisotopes were obtained from New England Nuclear [Dupont, Boston, MA] and substrates and co- factors were obtained from Sigma Chemical Co. [St. Louis, MO]. […] Cell lines were obtained from American Type Culture Collection [Rockville, MD]. In Vivo Tests Anti-inflammatory screen in mice: Male CF male mice weighing 28-32g obtained from Jackson Lab. [Bar Harbor, […]] were used to screen agents at 8 or 16 mg/kg intraperitoneal [I.P.] x 2 administered 3 hr and 30 min prior to administering the irritant, according to Winter's protocol. Evaluation of the induced edema was made by injecting 2% carrageenan in 0.9% saline into the plantar region of the foot. The opposite foot injected with 0.9% isotonic saline was used as a base line. […] Salmonella abortus equi [Lot # 69F4003] […] Drugs from 2 to 16 mg/kg, I.P. were administered 2 hr prior and 2 hr post-injection of the LPS and then subsequently for every 24 hr for the length ofthe animals' lives. Deaths were recorded every 12 hr and continued for 96 hr. […] In vitro TNFa andIL-1 Measurements and Cellular Regulation IC-21 mouse macrophages were maintained in RPMI-1640 + 10% FCS + P/S. After the cells had grown to confluency, E. coli LPS at 10 Ixg/ml was added to the medium. Agents were incubated at 12.5 to 100 µM final concentration for 18 hr. The medium (100 btl) was collected for TNFCt determinations. Interleukin-1 [IL-1] release was determined using P388D1 cells which were maintained in RPMI-1640 + 10% FCS + P/S. The L929 bioassay was used to quantitate the TNF and the IL-1 levels. The L929 mouse fibroblasts were grown in DMEM + 10% FCS + P/S to confluency in 96 well plates and incubated with 100 tl ofmedium from […] or P388D cells after 18 hr. The cells were stained with 0.2% crystal violet in 20% MeOH and read at 580 nm using a Molecular Devices scanner (SOFT-max program). High Affinity Binding to Receptors on L929-106 Cells Two laCi of 125I-TNFct (human recombinant, 30 mCi/tg New England Nuclear) or 125I-IL-1 (70-120[.t Ci/lxg,New England Nuclear) was added to confluency L929 cells for 90 min or 5 hr, respectively with 25, 50 and 100 tM of the test compounds 12]. The cells were washed repeatedly with isotonic saline, pH.7.2 and aliquots counted. Prostaglandin cylcooxygenase activity Mouse J774AI macrophages maintained in Dulbecco's modified Eagle's medium + 15% FCS + P/S. Cells (5 x 106) were incubated with agents (5 to 100 ].tM final concentration) and 3H-arachidonic acid (100 Ci/mol) for 60 min at 37C in a CO2 incubator. The reaction was terminated with 2N HCI, the mixture extracted 2 X with ether, and the organic layer evaporated.

[4] = tested on: J774 A1 mouse macrophages adhesion to L929 fibroblasts; experiment: Adhesion of J-774 A1 mouse macrophages to confluent L929 fibroblasts; assay type: cell-based; settings: N=6

## CC(=O)Oc1c2cc(S(=O)(=O)[O-])cc1Cc1cc(S(=O)(=O)[O-])cc(c1OC(C)=O)Cc1cc(S(=O)(=O)[O-])cc(c1OC(C)=O)Cc1cc(S(=O)(=O)[O-])cc(c1OC(C)=O)Cc1cc(S(=O)(=O)[O-])cc(c1OC(C)=O)Cc1cc(S(=O)(=O)[O-])cc(c1OC(C)=O)Cc1cc(S(=O)(=O)[O-])cc(c1OC(C)=O)Cc1cc(S(=O)(=O)[O-])cc(c1OC(C)=O)C2.[Na+].[Na+].[Na+].[Na+].[Na+].[Na+].[Na+].[Na+] [Compound 8]
[1]; 5 μM, 2 Hours
  125I-IL-2 binding, Percent of Control: 138 + 5% of Control
[1]; 5 μM, 5 Hours
  125I-IL-2 binding, Percent of Control: 85 + 5% of Control
[1]; 12.5 μM, 2 Hours
  125I-IL-2 binding, Percent of Control: 215 + 7% of Control
[1]; 12.5 μM, 5 Hours
  125I-IL-2 binding, Percent of Control: 78 + 4% of Control
[1]; 25 μM, 2 Hours
  125I-IL-2 binding, Percent of Control: 88 + 6% of Control
[1]; 25 μM, 5 Hours
  125I-IL-2 binding, Percent of Control: 59 + 5% of Control
[1]; 50 μM, 2 Hours
  125I-IL-2 binding, Percent of Control: 38 + 4% of Control
[1]; 50 μM, 5 Hours
  125I-IL-2 binding, Percent of Control: 55 + 6% of Control
[1]; 50 μM, 2 hr
  reduction of IL-2 binding: 62%
[1]; 50 μM, 5 hr
  reduction of IL-2 high affinity binding: 45%
[2]; 5 μM, 60 min
  Adhesion, Percent of Control: 49 + 7% of Control
[2]; 5 μM, 90 min
  Adhesion, Percent of Control: 108+6% of Control
[2]; 12.5 μM, 60 min
  Adhesion, Percent of Control: 40+ 5% of Control
[2]; 12.5 μM, 90 min
  Adhesion, Percent of Control: 65 +6% of Control
[2]; 25 μM, 2 Hours
  Adhesion, Percent of Control: 108+4% of Control
[2]; 25 μM, 60 min
  Adhesion, Percent of Control: 41 +5% of Control
[2]; 25 μM, 90 min
  Adhesion, Percent of Control: 63+3% of Control
[2]; 50 μM, 2 Hours
  Adhesion, Percent of Control: 116+6% of Control
[2]; 50 μM, 60 min
  Adhesion, Percent of Control: 55+4% of Control
[2]; 5 to 50 μM, at 2 and 5 hr
  reducing the adhesion of human leukocytes: not effective
[2]; 5 to 50 μM, at 60 and 90 min
  reducing significantly the adhesion of human leukocytes: effective
[3]; 2 mg/kg I.P.
  Percent Survival at 52 hr: 67%
[3]; 4 mg/Kg I.P.
  Percent Survival at 52 hr: 67%
[3]; 8 mg/Kg I.P.
  Percent Survival at 52 hr: 67%
[3]; 16 mg/Kg I.P.
  Percent Survival at 52 hr: 83%
[3]; 16 mg/kg
  protection from LPS induced death: 83%
[4]; 5 μM, 2 Hours
  Adhesion, Percent of Control: 73 + 5% of Control
[4]; 5 μM, 5 Hours
  Adhesion, Percent of Control: 107 + 5% of Control
[4]; 5 μM, 90 min
  Adhesion, Percent of Control: 136 + 5% of Control
[4]; 12.5 μM, 2 Hours
  Adhesion, Percent of Control: 61 + 6% of Control
[4]; 12.5 μM, 5 Hours
  Adhesion, Percent of Control: 106 + 6% of Control
[4]; 12.5 μM, 90 min
  Adhesion, Percent of Control: 135 + 7% of Control
[4]; 25 μM, 2 Hours
  Adhesion, Percent of Control: 91 + 5% of Control
[4]; 25 μM, 5 Hours
  Adhesion, Percent of Control: 125 + 7% of Control
[4]; 25 μM, 90 min
  Adhesion, Percent of Control: 183 + 7% of Control
[4]; 50 μM, 2 Hours
  Adhesion, Percent of Control: 92 + 6% of Control
[4]; 50 μM, 5 Hours
  Adhesion, Percent of Control: 131 + 7% of Control
[4]; 50 μM, 90 min
  Adhesion, Percent of Control: 94 + 6% of Control

Source: paper PMC2365101, “Anti-Inflammatory Activity of (Polyphenolic)-Sulfonates and Their Sodium Salts in Rodents” (Metal-Based Drugs, 1998)
